Reference: patent US12298308B2, “Neoadjuvant chemotherapy induces breast cancer metastasis through a TMEM-mediated mechanism” (Albert Einstein College of Medicine, priority 2017, dated 2025)

Key:
[1] = system: Tie2^hi/Vegf^hi macrophages; assay: Macrophage infiltration by multi-channel immunofluorescence (Iba1, Cd31, Tie2, Vegf); type: in vivo, mouse
Text: The functional TMEM sites contain Tie2^hi/Vegf^hi macrophages and invasive tumor cells in perivascular regions (1), and it was independently shown that chemotherapy may promote mobilization of such Tie2^hi monocyte progenitors in primary tumors (8, 10). The Tie2^hi/Vegf^hi macrophage subpopulation was quantified herein using multi-channel immunofluorescence (IF) imaging (FIGS. 1D-F) (10, 14, 34). FIG. 1E illustrates a representative IF image of a Tie2^hi/Vegf^hi macrophage quantified using Cd31, Iba1, Vegf and Tie2 staining.
(§1) Drug Administration. The following drugs were administered in mice: Paclitaxel was given at 10 mg/Kg i.v every 5 days for 2 weeks; Doxorubicin was given at 5 mg/Kg i.v. every 5 days for 2 weeks; Cyclophosphamide was given at 120 mg/Kg i.p. only once; Rebastinib was given at 10 mg/Kg per os, every 3-4 days for 4 weeks.
Animals and Animal Procedures. MMTV-PyMT mice were bred in-house at the Albert Einstein College of Medicine (AECOM). Generation of MMTV-PyMT Mena^−/− has been described previously (28). CFP- or Dendra2-labeled mammary carcinoma cells were generated on the FVB background by co-injection of Tg(MMTV-iCRE)1jwp together with Tg(PCAG-loxp-CATstop-loxp-CFP) or Tg(loxP-stop-loxP-PDendra2)jwp plasmids, respectively, by conventional methods in the Albert Einstein Transgenic Mouse Facility. All syngeneic transplantation models were generated through orthotopic transplantation of 1 mm×1 mm tumor chunks, using tumors of 1 cm-diameter from 12-16-week old MMTV-PyMT mena−/− or mena+/+ donor mice into 5-6 week-old FVB recipients. Tumor chunks were implanted on the fourth mammary pad on the left side. The generation of the ER^− HT17 and ER^+ HT33 patient-derived xenografts has been described previously (31). Animal handling and associated procedures were approved by the Institutional Animal Care and Use Committee (IACUC). Additional information is detailed in Supplementary Methods.
Immunofluorescence. Slides were deparaffinized by melting at 60° C. in an oven equipped with a fan for 20 minutes, followed by 2× xylene treatment for 20 minutes. Slides were rehydrated and antigen retrieval was done in 1 mM EDTA (pH 8.0) or 1× citrate buffer (pH 6.0) (Diagnostic BioSystems) at 97° C. for 20 minutes in a conventional steamer. Endogenous peroxidase was blocked by using 0.3% hydrogen peroxide in water, followed by incubation of slides in a blocking buffer solution (10% FBS, 1% BSA, 0.0025% fish skin gelatin in 0.05% PBST) for 60 minutes at room temperature. The following primary antibodies were used in different combinations, depending on the experiment: chicken anti-Mena^INV (0.25 ug/mL, generated in-house in the lab of John S. Condeelis), rabbit anti-Cd31 (1:400; 77699s; Cell Signaling), rabbit anti-Vegf (1:2,000; Rb 9031-PO-A; Thermo), rat anti-Tie2 (1:100; 16-5987-82; eBioscience), rabbit anti-Iba1 (1:6,000; 019-19741; Wako), rat anti-endomucin (1:500; sc-65495; Santa Cruz), rabbit anti-TMR (1:1,000; A-6397; Life Technologies). Secondary antibody treatment was performed using HRP-conjugated antibodies, and was followed by tyramide signal amplification (TSA), using the Perkin Elmer; Opal™ 4-color Fluorescent IHC kit, according to the manufacturer's directions. All slides were imaged on the Pannoramic 250 Flash II digital whole slide scanner, using a 20×0.75NA objective lens. Image analysis was performed in ImageJ, detailed in Supplementary Methods.

circulating tumor cells = assay: Circulating tumor cells per mL of blood; type: in vivo, mouse
Procedure: as §1
Circulating Tumor Cells. Mice were anesthetized with 3.5-4.5% isoflurane, and blood was taken from the right ventricle by heart puncture, using 25G needles coated with heparin. Erythrocytes were lysed, using 10 ml of 1×RBC lysis buffer (multi-species, eBioscience). Cancer cells were quantified, as previously described (31, 60).

Mena^INV [2] = assay: Mena^INV protein expression by immunofluorescence in mouse tumors; type: in vivo; conditions: PyMT-spontaneous and HT17-xenograft models; p<0.0001
Text: To test this hypothesis, qRT-PCR analysis was first performed for total Mena (panMena), Mena11a and Mena^INV on formalin-fixed paraffin-embedded (FFPE) tumors from all mouse models. […] As shown in the specific Mena^INV IF, the pattern of Mena^INV expression in PyMT mice was heterogeneous (FIG. 4F), consistent with previous observations (40). […] In addition, there was an inverse correlation for the anti-metastatic Mena11a (p<0.01, […]).
(§2) Immunofluorescence. Slides were deparaffinized by melting at 60° C. in an oven equipped with a fan for 20 minutes, followed by 2× xylene treatment for 20 minutes. Slides were rehydrated and antigen retrieval was done in 1 mM EDTA (pH 8.0) or 1× citrate buffer (pH 6.0) (Diagnostic BioSystems) at 97° C. for 20 minutes in a conventional steamer. Endogenous peroxidase was blocked by using 0.3% hydrogen peroxide in water, followed by incubation of slides in a blocking buffer solution (10% FBS, 1% BSA, 0.0025% fish skin gelatin in 0.05% PBST) for 60 minutes at room temperature. […]

Mena^INV [3] = assay: Mena^INV expression before and after NAC or paclitaxel in breast cancer patients; type: in vivo, human; conditions: qRT-PCR in FNA biopsies before and one week after second dose of weekly paclitaxel; n=5
Text: To further substantiate the translational importance of our preclinical data from PyMT and PDX mice receiving neoadjuvant paclitaxel into human breast cancer patients, we compared Mena^INV expression levels in Pre- and Post-NAC samples. […] Additionally, we analyzed Mena^INV expression by qRT-PCR in fine needle aspiration (FNA) biopsies taken before and one week after the second dose of weekly paclitaxel in an independent small cohort of patients (n=5).
as §2

breast cancer = conditions: addition of paclitaxel into preoperative NAC regimen; cited from earlier work
MDA-MB-213 xenografts = conditions: paclitaxel-treated vs control MDA-MB-213 xenografts; cited from earlier work
[4] = Mena^-/- PyMT-CFP transplanted tumors
[5] = single agent vs vehicle, PyMT-transplantation and HT17 xenograft

Compound: CC(=O)O[C@H]1C(=O)[C@@]2(C)[C@H]([C@H](OC(=O)c3ccccc3)[C@]3(O)C[C@H](OC(=O)[C@H](O)[C@@H](NC(=O)c4ccccc4)c4ccccc4)C(C)=C1C3(C)C)[C@]1(OC(C)=O)CO[C@@H]1C[C@@H]2O [paclitaxel]
- absolute number of Iba1^+ cells ([1]; HT17-xenograft, entire tissue or perivascular niche, p<0.001): significantly increased
- perivascular Iba1^+ macrophage infiltration [1, 4]: increased
- perivascular Tie2^hi/Vegf^hi Iba1^+ macrophage infiltration [1, 4]: increased
- perivascular Tie2^hi/Vegf^hi macrophage subpopulation ([1]; PyMT-spontaneous model): significant increase
- percentage of macrophage-specific Iba1^+ area ([1]; all transplantation models, p<0.01): significant increase
- proportion of Tie2^hi/Vegf^hi macrophages among all Iba1^+ cells ([1]; paclitaxel treatment): increased
- density of perivascular Tie2^hi/Vegf^hi macrophages [1, 5]: significant increases
- density of Tie2^hi/Vegf^hi macrophages ([1]; vs vehicle-treated controls, entire tissue or perivascular niches, p<0.001): significantly higher
- number of CTCs in the blood (circulating tumor cells; Mena^-/- PyMT-CFP transplants): failed to boost
- increase in circulating tumor cells (CTCs) (circulating tumor cells; all experimental models examined, p<0.05): at least 2 fold
- number of CTCs (TMEM activity) (circulating tumor cells; [5]): significant increases
- Mena^INV expression at the protein level (Mena^INV [2]): increased expression
- patients with increase of Mena^INV gene-expression (Mena^INV [3]): 4/5
- overall survival (breast cancer): does not improve
- rate of pathologic complete response (pCR) (breast cancer): significantly increases
- Mena expression (MDA-MB-213 xenografts): significantly increased
- Mena^INV expression (MDA-MB-213 xenografts): significantly increased
